For three compounds, IC50 results are on record in ChEMBL document CHEMBL1156355, “Phenolic compounds from Miconia myriantha inhibiting Candida aspartic proteases” (J Nat Prod, 2001).

By IC50 is commonly meant the point on the concentration scale where inhibition reaches its midpoint. Read a low IC50 as greater potency in that assay.

Test [1] in a line: Inhibition of pepsin.
A short description of test [2]: Inhibition of Candida albicans ATCC 10231 secreted aspartic protease.

Each structure is given as a SMILES string.

On to `COc1ccc([C@@H]2CC(=O)c3c(O)c(C)c(O[C@@H]4O[C@@H]5COC(=O)c6cc(O)c(O)c(O)c6-c6c(cc(O)c(O)c6O)C(=O)O[C@H]5[C@H](O)[C@H]4O)c(C)c3O2)cc1`, for which the IC50 worked out at 66.6 µM in test [1] and 8.4 µM in test [2].

Regarding `O=c1oc2c(O)c(O)cc3c(=O)oc4c(O)c(O)cc1c4c23` [ELLAGIC ACID], the IC50 was 37.1 µM in test [1] and 10.5 µM in test [2].

With `CC(C)CC(=O)N[C@H](C(=O)N[C@H](C(=O)N[C@@H](CC(C)C)[C@@H](O)CC(=O)N[C@@H](C)C(=O)N[C@@H](CC(C)C)[C@@H](O)CC(=O)O)C(C)C)C(C)C` [PEPSTATIN], the half-inhibitory concentration (IC50) in test [1] came to 0.31 µM; in test [2] it was 0.016 µM.
